# Measurements reported in US20240140991A1, “ANTIBIOTIC NATURAL PRODUCT ANALOGUES” (THE QUEEN'S UNIVERSITY OF BELFAST, priority 2021, published 2024).
# Positions of bridges follow the written chain, without caps; N, C: chain ends. Non-standard residues stand in square brackets, D forms with d. Residues, ends and D or L forms follow the SMILES beside them. *: point of attachment. Octanoyl(7-Me) = CC(C)CCCCCC(=O)*; X2 = CC(=O)[C@H](CC(N)=O)C(=O)*; dOrn = NCCC[C@@H](N)C(=O)O; Octanoyl = CCCCCCCC(=O)*; Orn = NCCC[C@H](N)C(=O)O; Dap = NC[C@H](N)C(=O)O; Hexanoyl = CCCCCC(=O)*; Alloc = C=CCOC(=O)*
# System: Escherichia coli ATCC 25922
# Format: cell-based
# Details: ATCC 25922
# Method in brief: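 Broth microdilution in MHB per CLSI; inoculum 2×10^5 CFU mL^−1 from log-phase TSB cultures at OD600 0.5. Plates incubated 16 hours at 37° C with shaking at 220 rpm. MIC is the lowest concentration preventing visible growth.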
row,Compound,Minimum inhibitory concentration (MIC) [µg/mL]
1,"CC[C@H](C)[C@H](NC(=O)[C@@H](NC(=O)[C@H](Cc1c[nH]c2ccccc12)NC(=O)[C@@H](CCCN)NC(=O)CNC(=O)[C@H](CCCN)NC(=O)[C@@H](CCCN)NC(=O)[C@@H](Cc1c[nH]c2ccccc12)NC(=O)[C@@H](Cc1ccc(O)cc1)NC(=O)[C@@H](CO)NC(=O)CCCCCC(C)C)[C@@H](C)O)C(=O)N[C@@H](CC(N)=O)C(N)=O [ΔG12-G13, FA-sywoOGoWTIN-CONH2] ({Octanoyl(7-Me)}-[dS][dY][dW][dOrn][Orn]G[dOrn]WTIN-NH2)",4
2,C=CCOC(=O)NC[C@H](NC(=O)[C@H](Cc1c[nH]c2ccccc12)NC(=O)[C@@H](CCCN)NC(=O)CNC(=O)[C@H](CCCN)NC(=O)[C@@H](CCCN)NC(=O)[C@@H](Cc1c[nH]c2ccccc12)NC(=O)[C@@H](Cc1ccc(O)cc1)NC(=O)[C@@H](CO)NC(=O)CCCCCCC)C(=O)N[C@H](C(=O)N[C@@H](CC(N)=O)C(N)=O)[C@@H](C)CC [ΔG12-G13-Dap(Alloc)9-C8] (Octanoyl-[dS][dY][dW][dOrn][Orn]G[dOrn]W[Dap](Alloc)IN-NH2),4
3,C=CCOC(=O)NC[C@H](NC(=O)[C@H](Cc1c[nH]c2ccccc12)NC(=O)[C@@H](CCCN)NC(=O)CNC(=O)[C@H](CCCN)NC(=O)[C@@H](CCCN)NC(=O)[C@@H](Cc1c[nH]c2ccccc12)NC(=O)[C@@H](Cc1ccc(O)cc1)NC(=O)[C@@H](CO)NC(=O)CCCCCC(C)C)C(=O)N[C@H](C(=O)N[C@@H](CC(N)=O)C(N)=O)[C@@H](C)CC [ΔG12-G13-Dap(Alloc)9-isoC9] ({Octanoyl(7-Me)}-[dS][dY][dW][dOrn][Orn]G[dOrn]W[Dap](Alloc)IN-NH2),4
4,CCCCCCCC(=O)N[C@H](CO)C(=O)N[C@H](Cc1ccc(O)cc1)C(=O)N[C@H](Cc1c[nH]c2ccccc12)C(=O)N[C@H](CCCN)C(=O)N[C@@H](CCCN)C(=O)NCC(=O)N[C@H](CCCN)C(=O)N[C@@H](Cc1c[nH]c2ccccc12)C(=O)N[C@@H](CO)C(=O)N[C@H](C(=O)N[C@@H](CC(N)=O)C(N)=O)[C@@H](C)CC [ΔG12-G13-Ser9-C8] (Octanoyl-[dS][dY][dW][dOrn][Orn]G[dOrn]WSIN-NH2),4
5,CC[C@H](C)[C@H](NC(=O)[C@H](CO)NC(=O)[C@H](Cc1c[nH]c2ccccc12)NC(=O)[C@@H](CCCN)NC(=O)CNC(=O)[C@H](CCCN)NC(=O)[C@@H](CCCN)NC(=O)[C@@H](Cc1c[nH]c2ccccc12)NC(=O)[C@@H](Cc1ccc(O)cc1)NC(=O)[C@@H](CO)NC(=O)CCCCCC(C)C)C(=O)N[C@@H](CC(N)=O)C(N)=O [ΔG12-G13-Ser9-isoC9] ({Octanoyl(7-Me)}-[dS][dY][dW][dOrn][Orn]G[dOrn]WSIN-NH2),4
6,"CC[C@H](C)[C@H](NC(=O)[C@@H](NC(=O)[C@H](Cc1c[nH]c2ccccc12)NC(=O)[C@@H](CCCN)NC(=O)CNC(=O)[C@H](CCCN)NC(=O)[C@@H](CCCN)NC(=O)[C@@H](Cc1c[nH]c2ccccc12)NC(=O)[C@@H](Cc1ccc(O)cc1)NC(=O)[C@@H](CO)NC(=O)CCCCCC(C)C)[C@@H](C)O)C(=O)N[C@@H](CC(N)=O)C(=O)NCC(N)=O [ΔG13, FA-sywoOGoWTING-CONH2] ({Octanoyl(7-Me)}-[dS][dY][dW][dOrn][Orn]G[dOrn]WTING-NH2)",2
7,C=CCOC(=O)NC[C@H](NC(=O)[C@H](Cc1c[nH]c2ccccc12)NC(=O)[C@@H](CCCN)NC(=O)CNC(=O)[C@H](CCCN)NC(=O)[C@@H](CCCN)NC(=O)[C@@H](Cc1c[nH]c2ccccc12)NC(=O)[C@@H](Cc1ccc(O)cc1)NC(=O)[C@@H](CO)NC(=O)CCCCCCC)C(=O)N[C@H](C(=O)N[C@@H](CC(N)=O)C(=O)NCC(N)=O)[C@@H](C)CC [ΔG13-Dap(Alloc)9-C8] (Octanoyl-[dS][dY][dW][dOrn][Orn]G[dOrn]W[Dap](Alloc)ING-NH2),2 to 4
8,C=CCOC(=O)NC[C@H](NC(=O)[C@H](Cc1c[nH]c2ccccc12)NC(=O)[C@@H](CCCN)NC(=O)CNC(=O)[C@H](CCCN)NC(=O)[C@@H](CCCN)NC(=O)[C@@H](Cc1c[nH]c2ccccc12)NC(=O)[C@@H](Cc1ccc(O)cc1)NC(=O)[C@@H](CO)NC(=O)CCCCCC(C)C)C(=O)N[C@H](C(=O)N[C@@H](CC(N)=O)C(=O)NCC(N)=O)[C@@H](C)CC [ΔG13-Dap(Alloc)9-isoC9] ({Octanoyl(7-Me)}-[dS][dY][dW][dOrn][Orn]G[dOrn]W[Dap](Alloc)ING-NH2),2
9,CCCCCCCC(=O)N[C@H](CO)C(=O)N[C@H](Cc1ccc(O)cc1)C(=O)N[C@H](Cc1c[nH]c2ccccc12)C(=O)N[C@H](CCCN)C(=O)N[C@@H](CCCN)C(=O)NCC(=O)N[C@H](CCCN)C(=O)N[C@@H](Cc1c[nH]c2ccccc12)C(=O)N[C@@H](CO)C(=O)N[C@H](C(=O)N[C@@H](CC(N)=O)C(=O)NCC(N)=O)[C@@H](C)CC [ΔG13-Ser9-C8] (Octanoyl-[dS][dY][dW][dOrn][Orn]G[dOrn]WSING-NH2),4
10,CC[C@H](C)[C@H](NC(=O)[C@H](CO)NC(=O)[C@H](Cc1c[nH]c2ccccc12)NC(=O)[C@@H](CCCN)NC(=O)CNC(=O)[C@H](CCCN)NC(=O)[C@@H](CCCN)NC(=O)[C@@H](Cc1c[nH]c2ccccc12)NC(=O)[C@@H](Cc1ccc(O)cc1)NC(=O)[C@@H](CO)NC(=O)CCCCCC(C)C)C(=O)N[C@@H](CC(N)=O)C(=O)NCC(N)=O [ΔG13-Ser9-isoC9] ({Octanoyl(7-Me)}-[dS][dY][dW][dOrn][Orn]G[dOrn]WSING-NH2),4
11,"CC(C)CCCCCC(=O)N[C@H](CO)C(=O)N[C@H](Cc1ccc(O)cc1)C(=O)N[C@H](Cc1c[nH]c2ccccc12)C(=O)N[C@H](CCCN)C(=O)N[C@@H](CCCN)C(=O)NCC(=O)N[C@H](CCCN)C(=O)N[C@@H](Cc1c[nH]c2ccccc12)C(=O)N[C@H](C(N)=O)[C@@H](C)O [ΔI10-G13, FA-sywoOGoWT-CONH2] ({Octanoyl(7-Me)}-[dS][dY][dW][dOrn][Orn]G[dOrn]WT-NH2)",16
12,"CC[C@H](C)[C@H](NC(=O)[C@@H](NC(=O)[C@H](Cc1c[nH]c2ccccc12)NC(=O)[C@@H](CCCN)NC(=O)CNC(=O)[C@H](CCCN)NC(=O)[C@@H](CCCN)NC(=O)[C@@H](Cc1c[nH]c2ccccc12)NC(=O)[C@@H](Cc1ccc(O)cc1)NC(=O)[C@@H](CO)NC(=O)CCCCCC(C)C)[C@@H](C)O)C(N)=O [ΔN11-G13, FA-sywoOGoWTI-CONH2] ({Octanoyl(7-Me)}-[dS][dY][dW][dOrn][Orn]G[dOrn]WTI-NH2)",4
13,"CC(C)CCCCCC(=O)N[C@H](CO)C(=O)N[C@H](Cc1ccc(O)cc1)C(=O)N[C@H](Cc1c[nH]c2ccccc12)C(=O)N[C@H](CCCN)C(=O)N[C@@H](CCCN)C(=O)NCC(=O)N[C@H](CCCN)C(=O)N[C@@H](Cc1c[nH]c2ccccc12)C(N)=O [ΔT9-G13, FA-sywoOGoW-CONH2] ({Octanoyl(7-Me)}-[dS][dY][dW][dOrn][Orn]G[dOrn]W-NH2)",16

# Same assay, conditions: in vitro activity quoted in the in vivo section
row,Compound,MIC values against E. coli ATCC 25922 [µg/mL]
1,polymyxin B [reference compound],0.5

# System: E. coli
# Format: cell-based
# Details: not given
# Procedure: Minimum inhibitory concentration (MIC) was determined by broth microdilution according to CLSI guidelines. Blood agar plates were inoculated with glycerol stocks of Escherichia coli ATCC 25922, E. coli ATCC 25922 MCR-1, E. coli MCR-1 (clinical isolate from Utrecht Medical Center, NL), E. coli EQAS MCR-2 (clinical isolate from Wageningen University and Research, NL), Kiebsielia pneumoniae ATCC 11228, K. pneumoniae ATCC 13883, K. pneumonia 2048 (clinical isolate from Vrije Universiteit Amsterdam Medical Center, NL), K. pneumonia JS-123 (clinical isolate from Utrecht Medical Center, NL), Acinetobacter baumannii ATCC 17961, A. baumannil ATCC 17978, A. baumannii 2018-006 (clinical isolate from Rijksinstituut voor Volksgezondheid en Milieu, NL), A. baumannii MDR (clinical isolate from Vrije Universiteit Amsterdam Medical Center, NL), Pseudomonas aeruginosa ATCC 27853, P. aeruginosa PAO1, P. aeruginosa NRZ-03961 (Reference strain from Das Nationale Referenzzentrum für gramnegative Krankenhauserreger, DE), P. aeruginosa M-120 (clinical isolate from Leiden University Medical Center, NL) and Staphylococcus aureus USA300 (clinical isolate from Texas Children's Hospitalm, USA). E. coli 25922 MCR1 was grown on LB agar supplemented with kanamycin. The inoculated agar plates were then incubated for 16 hours at 37° C. Individually grown colonies were subsequently used to inoculate 3 mL aliquots of TSB that were then incubated at 37° C. with shaking at 220 rpm. In parallel, the compounds to be assessed were serially diluted with Mueller-Hinton broth (MHB) in polypropylene 96-well plates (50 μL in each well). Once the OD600 of the bacterial suspensions reached 0.5, the bacteria were diluted with MHB (final concentration 2×10^5 CFU mL^−1) and added to the microplates containing the test compounds (50 μL to each well, final volume: 100 μL). The well-plates were sealed with an adhesive membrane and after 16 hours of incubation at 37° C. with shaking at 220 rpm the wells were visually inspected for bacterial growth. MIC values were defined as the lowest concentration of the compound that prevented visible growth of bacteria.
# MIC values were determined for the lipid analogues of brevicidine.
# MIC values were determined for the position 9 analogues of linear brevicidine.
row,Compound,E. coli MIC [µg/mL]
1,CC[C@H](C)[C@@H]1NC(=O)[C@@H](NC(=O)[C@H](Cc2c[nH]c3ccccc23)NC(=O)[C@@H](CCCN)NC(=O)CNC(=O)[C@H](CCCN)NC(=O)[C@@H](CCCN)NC(=O)[C@@H](Cc2c[nH]c3ccccc23)NC(=O)[C@@H](Cc2ccc(O)cc2)NC(=O)[C@@H](CC(N)=O)C(C)=O)[C@@H](C)OC(=O)[C@H](CO)NC(=O)CNC1=O [Brev-C2] (X2-[dY][dW][dOrn][Orn]G[dOrn]WTIGS; ester 8-C),50
2,CCCCCC(=O)N[C@H](CC(N)=O)C(=O)N[C@H](Cc1ccc(O)cc1)C(=O)N[C@H](Cc1c[nH]c2ccccc12)C(=O)N[C@H](CCCN)C(=O)N[C@@H](CCCN)C(=O)NCC(=O)N[C@H](CCCN)C(=O)N[C@@H](Cc1c[nH]c2ccccc12)C(=O)N[C@@H]1C(=O)N[C@@H]([C@@H](C)CC)C(=O)NCC(=O)N[C@@H](CO)C(=O)O[C@@H]1C [Brev-C6] (Hexanoyl-[dN][dY][dW][dOrn][Orn]G[dOrn]WTIGS; ester 9-C),25
3,CCCCCCCC(=O)N[C@H](CC(N)=O)C(=O)N[C@H](Cc1ccc(O)cc1)C(=O)N[C@H](Cc1c[nH]c2ccccc12)C(=O)N[C@H](CCCN)C(=O)N[C@@H](CCCN)C(=O)NCC(=O)N[C@H](CCCN)C(=O)N[C@@H](Cc1c[nH]c2ccccc12)C(=O)N[C@@H]1C(=O)N[C@@H]([C@@H](C)CC)C(=O)NCC(=O)N[C@@H](CO)C(=O)O[C@@H]1C [Brev-C8] (Octanoyl-[dN][dY][dW][dOrn][Orn]G[dOrn]WTIGS; ester 9-C),25
